The values below come from ChEMBL document CHEMBL1681726, “Discovery of orally available tetrahydroquinoline-based glucocorticoid receptor agonists” (Bioorg Med Chem Lett, 2011).

A value given as a limit tells only on which side of the number the result lay.

Data set [1] deals with T1, Progesterone receptor (Homo sapiens, UniProt P06401).
T1 sequence (P06401 whole entry): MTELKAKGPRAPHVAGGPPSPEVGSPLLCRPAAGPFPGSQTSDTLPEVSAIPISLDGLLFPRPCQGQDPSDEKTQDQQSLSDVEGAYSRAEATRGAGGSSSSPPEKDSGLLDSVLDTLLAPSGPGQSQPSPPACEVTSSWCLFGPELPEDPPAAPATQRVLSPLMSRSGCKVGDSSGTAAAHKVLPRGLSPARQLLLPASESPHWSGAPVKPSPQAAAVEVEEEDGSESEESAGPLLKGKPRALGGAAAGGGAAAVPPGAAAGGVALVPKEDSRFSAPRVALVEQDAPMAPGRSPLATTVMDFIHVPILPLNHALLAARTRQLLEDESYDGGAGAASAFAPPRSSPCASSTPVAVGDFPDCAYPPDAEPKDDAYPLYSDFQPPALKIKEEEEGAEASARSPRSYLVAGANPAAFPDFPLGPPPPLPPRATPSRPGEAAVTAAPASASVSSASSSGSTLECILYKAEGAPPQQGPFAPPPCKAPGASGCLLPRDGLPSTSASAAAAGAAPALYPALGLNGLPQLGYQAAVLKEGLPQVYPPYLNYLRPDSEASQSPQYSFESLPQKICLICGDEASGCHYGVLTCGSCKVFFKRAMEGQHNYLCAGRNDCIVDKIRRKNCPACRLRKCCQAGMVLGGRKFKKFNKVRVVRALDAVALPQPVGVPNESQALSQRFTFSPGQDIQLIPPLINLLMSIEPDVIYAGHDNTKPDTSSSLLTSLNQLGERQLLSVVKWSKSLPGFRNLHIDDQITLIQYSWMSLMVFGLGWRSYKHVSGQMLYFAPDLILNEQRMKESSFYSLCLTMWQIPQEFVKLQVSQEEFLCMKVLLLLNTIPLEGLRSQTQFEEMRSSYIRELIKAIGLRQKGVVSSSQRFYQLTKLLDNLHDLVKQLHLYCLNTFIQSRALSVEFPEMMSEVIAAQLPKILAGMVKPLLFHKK
The data set can be described thus: Binding affinity to PR.

For data set [2], the target named is T2, Mineralocorticoid receptor (Homo sapiens, UniProt P08235).
T2 sequence (P08235 whole entry): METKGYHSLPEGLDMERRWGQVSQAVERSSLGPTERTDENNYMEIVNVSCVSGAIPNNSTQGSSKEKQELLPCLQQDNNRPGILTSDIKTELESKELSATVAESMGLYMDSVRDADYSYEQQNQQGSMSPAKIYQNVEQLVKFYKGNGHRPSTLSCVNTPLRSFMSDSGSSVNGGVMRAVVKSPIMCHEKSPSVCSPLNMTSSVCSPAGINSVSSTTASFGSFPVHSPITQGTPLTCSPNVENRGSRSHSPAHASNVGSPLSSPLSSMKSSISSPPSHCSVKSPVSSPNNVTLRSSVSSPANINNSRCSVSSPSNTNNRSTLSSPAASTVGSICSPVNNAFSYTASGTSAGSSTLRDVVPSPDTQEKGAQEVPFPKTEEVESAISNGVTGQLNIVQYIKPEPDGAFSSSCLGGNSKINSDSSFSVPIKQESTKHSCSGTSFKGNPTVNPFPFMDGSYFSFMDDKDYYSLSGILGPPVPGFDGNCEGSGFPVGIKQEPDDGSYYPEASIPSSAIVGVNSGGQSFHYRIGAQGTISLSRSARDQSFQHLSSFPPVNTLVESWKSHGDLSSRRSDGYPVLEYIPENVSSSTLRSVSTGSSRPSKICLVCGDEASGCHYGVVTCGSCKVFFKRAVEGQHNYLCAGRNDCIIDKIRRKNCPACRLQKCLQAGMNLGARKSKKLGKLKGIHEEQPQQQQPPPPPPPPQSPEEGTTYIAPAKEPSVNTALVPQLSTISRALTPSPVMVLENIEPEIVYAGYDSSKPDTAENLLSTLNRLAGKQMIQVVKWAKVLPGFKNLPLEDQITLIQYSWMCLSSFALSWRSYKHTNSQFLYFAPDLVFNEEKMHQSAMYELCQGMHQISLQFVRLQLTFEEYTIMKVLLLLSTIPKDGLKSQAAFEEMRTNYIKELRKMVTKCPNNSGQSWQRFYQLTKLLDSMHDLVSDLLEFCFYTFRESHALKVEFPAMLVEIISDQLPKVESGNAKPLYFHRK
The data set can be described thus: Binding affinity to MR.

The target of data set [3] is T3, Androgen receptor (Homo sapiens, UniProt P10275).
T3 sequence (P10275 whole entry): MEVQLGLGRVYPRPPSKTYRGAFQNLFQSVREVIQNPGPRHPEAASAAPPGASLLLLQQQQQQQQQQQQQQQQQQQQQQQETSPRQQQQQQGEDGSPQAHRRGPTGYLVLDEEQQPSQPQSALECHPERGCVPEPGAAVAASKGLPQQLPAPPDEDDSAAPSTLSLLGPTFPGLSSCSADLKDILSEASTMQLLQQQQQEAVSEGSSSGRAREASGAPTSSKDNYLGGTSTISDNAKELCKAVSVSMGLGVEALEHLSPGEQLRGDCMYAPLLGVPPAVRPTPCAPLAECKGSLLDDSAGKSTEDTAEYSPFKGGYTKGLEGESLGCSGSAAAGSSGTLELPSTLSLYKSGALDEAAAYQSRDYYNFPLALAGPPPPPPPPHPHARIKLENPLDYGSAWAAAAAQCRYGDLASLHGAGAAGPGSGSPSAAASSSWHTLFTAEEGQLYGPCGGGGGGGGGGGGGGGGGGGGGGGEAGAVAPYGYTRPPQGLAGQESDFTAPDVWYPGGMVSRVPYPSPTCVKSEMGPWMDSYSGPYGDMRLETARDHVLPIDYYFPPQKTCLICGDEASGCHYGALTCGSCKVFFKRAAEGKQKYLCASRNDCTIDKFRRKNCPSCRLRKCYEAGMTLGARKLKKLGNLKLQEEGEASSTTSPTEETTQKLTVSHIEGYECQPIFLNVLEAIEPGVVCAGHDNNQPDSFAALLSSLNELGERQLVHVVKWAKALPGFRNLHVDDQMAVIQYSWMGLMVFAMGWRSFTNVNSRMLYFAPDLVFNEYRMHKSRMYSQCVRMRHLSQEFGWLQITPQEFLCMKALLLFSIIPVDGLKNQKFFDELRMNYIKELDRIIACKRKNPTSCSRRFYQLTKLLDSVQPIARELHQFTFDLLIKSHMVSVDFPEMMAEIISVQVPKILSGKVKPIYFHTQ
Kind of data set: Binding affinity to AR.

Data set [4] can be described thus: Selectivity ratio of Ki for GR to Ki for AR.
The nature of data set [5]: AUC in Sprague-Dawley rat at 30 mg/kg, po. It is filed as ADME, organism-based. The arrangement: dose 30 mg/kg, route oral. The note with it: plasma.

Turning to `C[C@H]1c2c(cc(F)c(-c3cccc4cc[nH]c34)c2F)NC(C)(C)[C@@H]1O` (racemic), the values for the Ki in data set [1], in data set [2] and in data set [3] were 2100 nM, 1520 nM and 1430 nM, respectively. The Ratio Ki in data set [4] is above 500. Moreover, the area under the curve (AUC) in data set [5] is 35000 ng·h/mL.

The term Ki denotes the dissociation constant of the complex between target and ligand, obtained from inhibition or displacement. A higher Ki goes with weaker binding. One may read the AUC as concentration integrated over time.
